Reference: ChEMBL document CHEMBL1240316, “An oxidation-sensing mechanism is used by the global regulator MgrA in Staphylococcus aureus” (2006)
Calls of active or inactive are those of the source. The calls are words filed in the database; no cut-off is given here.

How the values were obtained:
Staphylococcus aureus [1] = experiment: Antimicrobial activity against Staphylococcus aureus expressing mgrA C12S mutant gene harboring plasmid Pyj335 assessed as visible growth at 0.6 ug/ml after 24 hrs; format: functional, organism-based
Staphylococcus aureus [2] = experiment: Antimicrobial activity against Staphylococcus aureus assessed as visible growth at 2.6 ug/ml after 24 hrs; format: functional, organism-based
Staphylococcus aureus [3] = experiment: Antimicrobial activity against Staphylococcus aureus assessed as visible growth at 0.6 ug/ml after 24 hrs; format: functional, organism-based
Staphylococcus aureus [4] = experiment: Antimicrobial activity against Staphylococcus aureus assessed as visible growth at 2.2 ug/ml after 24 hrs; format: functional, organism-based
Staphylococcus aureus [5] = experiment: Antimicrobial activity against Staphylococcus aureus expressing mgrAC12S mutant gene harboring plasmid Pyj335-His-mgrA C12S assessed as highest concentration at which growth was visible after 24 hrs; format: functional
Staphylococcus aureus [6] = experiment: Antimicrobial activity against Staphylococcus aureus expressing mgrA C12S mutant gene assessed as visible growth at 2.2 ug/ml after 24 hrs in presence of 20 uM paraquat; format: functional, organism-based
Staphylococcus aureus [7] = experiment: Antimicrobial activity against Staphylococcus aureus assessed as visible growth at 1.4 ug/ml after 24 hrs; format: functional, organism-based
Staphylococcus aureus [8] = experiment: Antimicrobial activity against Staphylococcus aureus expressing mgrA C12S mutant gene harboring Pyj335-His-mgrA assessed as visible growth at 2.6 ug/ml after 24 hrs; format: functional, organism-based
Staphylococcus aureus [9] = experiment: Antimicrobial activity against Staphylococcus aureus expressing mgrA C12S mutant gene harboring plasmid Pyj335 assessed as visible growth at 1.1 ug/ml after 24 hrs in presence of 25 uM paraquat; format: functional, organism-based
Staphylococcus aureus [10] = experiment: Antimicrobial activity against Staphylococcus aureus assessed as visible growth at 2.6 ug/ml after 24 hrs in presence of 20 uM paraquat; format: functional, organism-based
Staphylococcus aureus [11] = experiment: Antimicrobial activity against Staphylococcus aureus expressing mgrA C12S mutant gene harboring plasmid Pyj335 assessed as visible growth at 2.2 ug/ml after 24 hrs; format: functional, organism-based
Staphylococcus aureus [12] = experiment: Antimicrobial activity against Staphylococcus aureus expressing mgrA C12S mutant gene assessed as visible growth at 1.4 ug/ml after 24 hrs; format: functional, organism-based
Staphylococcus aureus [13] = experiment: Antimicrobial activity against Staphylococcus aureus expressing mgrA C12S mutant gene harboring Pyj335-His-mgrA assessed as visible growth at 1.1 ug/ml after 24 hrs in presence of 25 uM paraquat; format: functional, organism-based
Staphylococcus aureus [14] = experiment: Antimicrobial activity against Staphylococcus aureus expressing mgrA C12S mutant gene harboring Pyj335-His-mgrA assessed as visible growth at 0.55 ug/ml after 24 hrs in presence of 20 uM paraquat; format: functional, organism-based
Staphylococcus aureus [15] = experiment: Antimicrobial activity against Staphylococcus aureus expressing mgrA C12S mutant gene harboring plasmid Pyj335 assessed as visible growth at 0.20 ug/ml after 24 hrs; format: functional, organism-based
Staphylococcus aureus [16] = experiment: Antimicrobial activity against Staphylococcus aureus expressing mgrA C12S mutant gene harboring plasmid Pyj335 assessed as visible growth at 0.45 ug/ml after 24 hrs; format: functional, organism-based
Staphylococcus aureus [17] = experiment: Antimicrobial activity against Staphylococcus aureus expressing mgrA C12S mutant gene harboring plasmid Pyj335 assessed as visible growth at 0.65 ug/ml after 24 hrs in presence of 20 uM paraquat; format: functional, organism-based
Staphylococcus aureus [18] = experiment: Antimicrobial activity against Staphylococcus aureus assessed as visible growth at 0.55 ug/ml after 24 hrs; format: functional, organism-based
Staphylococcus aureus [19] = experiment: Antimicrobial activity against Staphylococcus aureus expressing mgrA C12S mutant gene assessed as visible growth at 0.20 ug/ml after 24 hrs; format: functional, organism-based
Staphylococcus aureus [20] = experiment: Antimicrobial activity against Staphylococcus aureus expressing mgrA C12S mutant gene assessed as visible growth at 0.35 ug/ml after 24 hrs; format: functional, organism-based
Staphylococcus aureus [21] = experiment: Antimicrobial activity against Staphylococcus aureus assessed as visible growth at 0.25 ug/ml after 24 hrs; format: functional, organism-based
Staphylococcus aureus [22] = experiment: Antimicrobial activity against Staphylococcus aureus assessed as visible growth at 0.75 ug/ml after 24 hrs in presence of 20 uM paraquat; format: functional, organism-based
Staphylococcus aureus [23] = experiment: Antimicrobial activity against Staphylococcus aureus expressing mgrA C12S mutant gene assessed as visible growth at 0.35 ug/ml after 24 hrs in presence of 20 uM paraquat; format: functional, organism-based

CN[C@H](CC(C)C)C(=O)N[C@H]1C(=O)N[C@@H](CC(N)=O)C(=O)N[C@H]2C(=O)N[C@H]3C(=O)N[C@H](C(=O)N[C@H](C(=O)O)c4cc(O)cc(O)c4-c4cc3ccc4O)[C@H](O)c3ccc(c(Cl)c3)Oc3cc2cc(c3O[C@@H]2O[C@H](CO)[C@@H](O)[C@H](O)[C@H]2O[C@H]2C[C@](C)(N)[C@H](O)[C@H](C)O2)Oc2ccc(cc2Cl)[C@H]1O [VANCOMYCIN]
Activity (Staphylococcus aureus [1]): inactive
Activity (Staphylococcus aureus [2]): Active
Activity (Staphylococcus aureus [3]): inactive
Activity (Staphylococcus aureus [4]): Active
Activity (Staphylococcus aureus [5]): 1 µg/mL
Activity (Staphylococcus aureus [6]): inactive
Activity (Staphylococcus aureus [7]): Active
Activity (Staphylococcus aureus [8]): Active
Activity (Staphylococcus aureus [9]): inactive
Activity (Staphylococcus aureus [10]): Active
Activity (Staphylococcus aureus [11]): inactive
Activity (Staphylococcus aureus [12]): inactive
Activity (Staphylococcus aureus [13]): Active

O=C(O)c1cn(C2CC2)c2cc(N3CCNCC3)c(F)cc2c1=O [CIPROFLOXACIN]
Activity (Staphylococcus aureus [14]): inactive
Activity (Staphylococcus aureus [15]): inactive
Activity (Staphylococcus aureus [16]): inactive
Activity (Staphylococcus aureus [17]): inactive
Activity (Staphylococcus aureus [18]): Active
Activity (Staphylococcus aureus [19]): inactive
Activity (Staphylococcus aureus [20]): inactive
Activity (Staphylococcus aureus [21]): inactive
Activity (Staphylococcus aureus [22]): Active
Activity (Staphylococcus aureus [23]): inactive
